This passage reports IC50 results from patent US9890153B2, “Substituted 1H-pyrrolo [2, 3-b] pyridine and 1H-pyrazolo [3, 4-b] pyridine derivatives as salt inducible kinase 2 (SIK2) inhibitors” (Arrien Pharmaceuticals LLC, priority 2012, dated 2018).

Chain of SIK2 (QIK) (SEQ ID NO: 11) (Q9H0K1 whole entry): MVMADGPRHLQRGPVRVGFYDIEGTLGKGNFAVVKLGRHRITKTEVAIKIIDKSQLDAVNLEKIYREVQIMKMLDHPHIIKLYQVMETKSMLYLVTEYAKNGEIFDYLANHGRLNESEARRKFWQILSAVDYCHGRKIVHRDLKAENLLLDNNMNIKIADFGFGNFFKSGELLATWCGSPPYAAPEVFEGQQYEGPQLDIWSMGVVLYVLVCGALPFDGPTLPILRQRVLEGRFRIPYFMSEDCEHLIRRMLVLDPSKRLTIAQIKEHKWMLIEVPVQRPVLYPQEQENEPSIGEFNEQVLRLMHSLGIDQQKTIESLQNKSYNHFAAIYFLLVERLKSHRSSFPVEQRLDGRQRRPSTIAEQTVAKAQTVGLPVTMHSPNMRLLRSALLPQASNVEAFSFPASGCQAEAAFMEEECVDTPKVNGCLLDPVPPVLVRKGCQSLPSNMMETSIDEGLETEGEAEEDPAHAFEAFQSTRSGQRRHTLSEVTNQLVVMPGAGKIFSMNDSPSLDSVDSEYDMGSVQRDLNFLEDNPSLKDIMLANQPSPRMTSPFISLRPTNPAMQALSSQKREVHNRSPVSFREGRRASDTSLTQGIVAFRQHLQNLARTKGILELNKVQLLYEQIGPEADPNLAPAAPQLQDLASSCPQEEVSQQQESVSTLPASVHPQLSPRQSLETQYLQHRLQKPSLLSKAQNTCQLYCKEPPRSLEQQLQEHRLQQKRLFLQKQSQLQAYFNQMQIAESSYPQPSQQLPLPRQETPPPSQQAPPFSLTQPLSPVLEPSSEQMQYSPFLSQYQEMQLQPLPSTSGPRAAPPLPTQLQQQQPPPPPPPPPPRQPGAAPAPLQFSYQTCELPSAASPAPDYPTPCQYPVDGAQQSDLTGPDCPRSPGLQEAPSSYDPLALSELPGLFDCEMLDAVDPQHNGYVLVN

One experiment has as its target SIK2 (QIK) (SEQ ID NO: 11) (Homo sapiens, UniProt Q9H0K1). The experiment is described as follows: SIK2 kinase assay (radiometric, 10 μM ATP). As to conditions: compounds purchased from vendor library, read-out: SIK2 IC50. Type of experiment: biochemical. The protocol: Procedure: Enzyme was incubated with substrate peptide in reaction buffer in the presence and absence of test compounds or Staurosporine. All additions were done on ice, followed by the addition of ATP mix. Wells were uniformly mixed using an Eppendorff plate shaker and incubated at 30° C. for 20 min, and stopped by the addition of 5 μL of 3% phosphoric acid. Volume was increased to 100 μL by adding 0.8% phosphoric acid which was then transferred to PC filter mats (Millipore), pre-equilibrated with 70% ethanol and water. Plates were washed thrice with 100 μL 0.8% phosphoric acid and dried for an hour at 60° C.
As for `COc1ccc(-c2ccnc3[nH]nc(-c4cccnc4)c23)cc1OC` [compound 1, 4-(3,4-dimethoxyphenyl)-3-(pyridin-3-yl)-1H-pyrazolo[3,4-b]pyridine], the IC50 is greater than 0.1 µM.

`FC(F)(F)c1cccc(-c2ccnc3[nH]nc(-c4ccc5c(c4)OCO5)c23)c1` [compound 2, 3-(benzo[d][1,3]dioxol-5-yl)-4-(3-(trifluoromethyl)phenyl)-1H-pyrazolo[3,4-b]pyridine]: the IC50 was greater than 1 µM.

Consider `COc1cc(-c2ccnc3[nH]nc(-c4cccc(NS(C)(=O)=O)c4)c23)cc(OC)c1OC` [compound 3, N-(3-(4-(3,4,5-trimethoxyphenyl)-1H-pyrazolo[3,4-b]pyridin-3-yl)phenyl)methanesulfonamide], for which the IC50 was greater than 1 µM.

`COc1cc(-c2n[nH]c3nccc(-c4cccc(C(=O)NCCN(C)C)c4)c23)cc(OC)c1OC` [compound 4, N-(2-(dimethylamino)ethyl)-3-(3-(3,4,5-trimethoxyphenyl)-1H-pyrazolo[3,4-b]pyridin-4-yl)benzamide]: the IC50 was greater than 1 µM.

Take `COc1ccccc1-c1n[nH]c2nccc(-c3ccsc3)c12` [compound 5, 3-(2-methoxyphenyl)-4-(thiophen-3-yl)-1H-pyrazolo[3,4-b]pyridine]: the IC50 was less than 0.1 µM.

Turning to `COc1cc(-c2n[nH]c3nccc(-c4ccc(C(C)C)cc4)c23)cc(OC)c1OC` [compound 6, 4-(4-isopropylphenyl)-3-(3,4,5-trimethoxyphenyl)-1H-pyrazolo[3,4-b]pyridine], the IC50 was greater than 0.1 µM.

`OCCNC(O)c1cccc(-c2n[nH]c3nccc(-c4cccc(C(F)(F)F)c4)c23)c1` (stereo not drawn) [compound 7, 2-((hydroxy(3-(4-(3-(trifluoromethyl)phenyl)-1H-pyrazolo[3,4-b]pyridin-3-yl)phenyl)methyl)amino)ethanol]: the IC50 was greater than 1 µM.

`COc1cccc(-c2ccnc3[nH]nc(-c4cccc(C(F)(F)F)c4)c23)c1` [compound 8, 4-(3-methoxyphenyl)-3-(3-(trifluoromethyl)phenyl)-1H-pyrazolo[3,4-b]pyridine]: the IC50 was greater than 1 µM.

In the case of `COc1cc(-c2n[nH]c3nccc(-c4cccc(N(C)C)c4)c23)cc(OC)c1OC` [compound 9, N,N-dimethyl-3-(3-(3,4,5-trimethoxyphenyl)-1H-pyrazolo[3,4-b]pyridin-4-yl)aniline], the IC50 is greater than 1 µM.

With `COc1ccccc1-c1n[nH]c2nccc(-c3ccoc3)c12` [compound 10, 4-(furan-3-yl)-3-(2-methoxyphenyl)-1H-pyrazolo[3,4-b]pyridine], the IC50 was less than 0.1 µM.

`COc1cc(-c2n[nH]c3nccc(-c4cccc(C(N)=O)c4)c23)cc(OC)c1OC` [compound 11, 3-(3-(3,4,5-trimethoxyphenyl)-1H-pyrazolo[3,4-b]pyridin-4-yl)benzamide]: the IC50 was greater than 1 µM.

Consider `CNC(=O)c1cccc(-c2ccnc3[nH]nc(-c4cccc(C(F)(F)F)c4)c23)c1` [compound 12, N-methyl-3-(3-(3-(trifluoromethyl)phenyl)-1H-pyrazolo[3,4-b]pyridin-4-yl)benzamide], for which the IC50 is greater than 1 µM.

Staying with this experiment, now noted: read-out: SIK2 (QIK) (SEQ ID NO: 11) kinase inhibition result.
As to `COc1ccc(-c2n[nH]c3nccc(-c4ccsc4)c23)cc1` [Example 7, 3-(4-methoxyphenyl)-4-(thiophen-3-yl)-1H-pyrazolo[3,4-b]pyridine], the IC50 was greater than 0.1 µM.

For the molecule `c1cc(-c2ccsc2)c2cc[nH]c2n1` [Example 20, 4-(thiophen-3-yl)-1H-pyrrolo[2,3-b]pyridine], the IC50 was greater than 1 µM.

As for `Fc1ccccc1-c1c[nH]c2nccc(-c3ccsc3)c12` [Example 22, 3-(2-fluorophenyl)-4-(thiophen-3-yl)-1H-pyrrolo[2,3-b]pyridine], the IC50 is greater than 1 µM.

For the molecule `Fc1cccc(-c2c[nH]c3nccc(-c4ccsc4)c23)c1Cl` [Example 23, 3-(2-chloro-3-fluorophenyl)-4-(thiophen-3-yl)-1H-pyrrolo[2,3-b]pyridine], the IC50 is greater than 0.1 µM.

As for `COc1cc(Cl)ccc1-c1c[nH]c2nccc(-c3ccsc3)c12` [Example 24, 3-(4-chloro-2-methoxyphenyl)-4-(thiophen-3-yl)-1H-pyrrolo[2,3-b]pyridine], the IC50 is greater than 0.1 µM.

For `COc1ccc(-c2c[nH]c3nccc(-c4ccsc4)c23)cc1` [Example 25, 3-(4-methoxyphenyl)-4-(thiophen-3-yl)-1H-pyrrolo[2,3-b]pyridine], the IC50 was greater than 1 µM.

For `CCOc1ccccc1-c1c[nH]c2nccc(-c3ccsc3)c12` [Example 26, 3-(2-ethoxyphenyl)-4-(thiophen-3-yl)-1H-pyrrolo[2,3-b]pyridine], the IC50 was greater than 0.1 µM.

Consider `COc1cc(F)ccc1-c1c[nH]c2nccc(-c3ccsc3)c12` [Example 28, 3-(4-fluoro-2-methoxyphenyl)-4-(thiophen-3-yl)-1H-pyrrolo[2,3-b]pyridine], for which the IC50 is greater than 0.1 µM.

On to `Clc1ccnc2[nH]cc(-c3ccsc3)c12` [Example 29, 4-chloro-3-(thiophen-3-yl)-1H-pyrrolo[2,3-b]pyridine], for which the IC50 was greater than 0.1 µM.

As to `COc1ccccc1-c1ccnc2[nH]cc(-c3ccsc3)c12` [Example 30, 4-(2-methoxyphenyl)-3-(thiophen-3-yl)-1H-pyrrolo[2,3-b]pyridine], the IC50 was greater than 1 µM.

Regarding `COc1ncccc1-c1c[nH]c2nccc(-c3ccsc3)c12` [Example 36, 3-(2-methoxypyridin-3-yl)-4-(thiophen-3-yl)-1H-pyrrolo[2,3-b]pyridine], the IC50 was greater than 0.1 µM.

For the molecule `c1cnc(N2CCOCC2)c(-c2c[nH]c3nccc(-c4ccsc4)c23)c1` [Example 37, 4-(3-(4-(thiophen-3-yl)-1H-pyrrolo[2,3-b]pyridin-3-yl)pyridin-2-yl)morpholine], the IC50 was greater than 0.1 µM.

Regarding `Clc1cccc(-c2c[nH]c3nccc(-c4ccsc4)c23)c1` [Example 47, 3-(3-chlorophenyl)-4-(thiophen-3-yl)-1H-pyrrolo[2,3-b]pyridine], the IC50 was greater than 0.1 µM.

For `COc1ccc(-c2n[nH]c3nccc(-c4ccsc4)c23)c(OC)c1` [Example 87, 3-(2,4-dimethoxyphenyl)-4-(thiophen-3-yl)-1H-pyrazolo[3,4-b]pyridine], the IC50 is greater than 0.1 µM.

On to `CN(C)S(=O)(=O)c1ccccc1-c1c[nH]c2nccc(-c3ccsc3)c12` [Example 94, N,N-dimethyl-2-(4-(thiophen-3-yl)-1H-pyrrolo[2,3-b]pyridin-3-yl)benzenesulfonamide], for which the IC50 was greater than 1 µM.

Regarding `FC(F)(F)Oc1ccccc1-c1c[nH]c2nccc(-c3ccsc3)c12` [Example 99, 4-(thiophen-3-yl)-3-(2-(trifluoromethoxy)phenyl)-1H-pyrrolo[2,3-b]pyridine], the IC50 is greater than 1 µM.

On to `Fc1cc(OC(F)(F)F)ccc1-c1c[nH]c2nccc(-c3ccsc3)c12` [Example 100, 3-(2-fluoro-4-(trifluoromethoxy)phenyl)-4-(thiophen-3-yl)-1H-pyrrolo[2,3-b]pyridine], for which the IC50 is greater than 1 µM.

For the molecule `COc1ccc(-c2c[nH]c3nccc(-c4ccsc4)c23)c(OC)n1` [Example 101, 3-(2,6-dimethoxypyridin-3-yl)-4-(thiophen-3-yl)-1H-pyrrolo[2,3-b]pyridine], the IC50 was greater than 0.1 µM.

`COc1ccccc1-c1c[nH]c2ncc(-c3ccsc3)cc12` [Example 113, 3-(2-methoxyphenyl)-5-(thiophen-3-yl)-1H-pyrrolo[2,3-b]pyridine]: the IC50 was greater than 0.1 µM.

For the molecule `COc1c(F)cccc1-c1c[nH]c2ncc(-c3ccsc3)cc12` [Example 125, 3-(3-fluoro-2-methoxyphenyl)-5-(thiophen-3-yl)-1H-pyrrolo[2,3-b]pyridine], the IC50 is less than 0.1 µM.

In the case of `COc1c(F)cc(F)cc1-c1c[nH]c2ncc(-c3ccsc3)cc12` [Example 126, 3-(3,5-difluoro-2-methoxyphenyl)-5-(thiophen-3-yl)-1H-pyrrolo[2,3-b]pyridine], the IC50 is greater than 1 µM.

On to `N#Cc1ccc(-c2cnc3[nH]cc(-c4cccc(F)c4Cl)c3c2)s1` [Example 132, 5-(3-(2-chloro-3-fluorophenyl)-1H-pyrrolo[2,3-b]pyridin-5-yl)thiophene-2-carbonitrile], for which the IC50 was greater than 0.1 µM.

`Cc1ncc(-c2cnc3[nH]cc(-c4cccc(F)c4Cl)c3c2)s1` [Example 137, 5-(3-(2-chloro-3-fluorophenyl)-1H-pyrrolo[2,3-b]pyridin-5-yl)-2-methylthiazole]: the IC50 is greater than 0.1 µM.

In the case of `Clc1ccccc1-c1c[nH]c2ncc(-c3ccsc3)cc12` [Example 139, 3-(2-chlorophenyl)-5-(thiophen-3-yl)-1H-pyrrolo[2,3-b]pyridine], the IC50 was greater than 1 µM.

For the molecule `Fc1ccc(-c2c[nH]c3ncc(-c4ccsc4)cc23)cc1Cl` [Example 140, 3-(3-chloro-4-fluorophenyl)-5-(thiophen-3-yl)-1H-pyrrolo[2,3-b]pyridine], the IC50 was greater than 1 µM.

The target in the next experiment is T1, SIK1 (SEQ ID NO: 10) (Homo sapiens, UniProt P57059).
T1 construct: Reaction Biology Corporation (assay service, HotSpot panel)
T1 sequence (P57059 whole entry): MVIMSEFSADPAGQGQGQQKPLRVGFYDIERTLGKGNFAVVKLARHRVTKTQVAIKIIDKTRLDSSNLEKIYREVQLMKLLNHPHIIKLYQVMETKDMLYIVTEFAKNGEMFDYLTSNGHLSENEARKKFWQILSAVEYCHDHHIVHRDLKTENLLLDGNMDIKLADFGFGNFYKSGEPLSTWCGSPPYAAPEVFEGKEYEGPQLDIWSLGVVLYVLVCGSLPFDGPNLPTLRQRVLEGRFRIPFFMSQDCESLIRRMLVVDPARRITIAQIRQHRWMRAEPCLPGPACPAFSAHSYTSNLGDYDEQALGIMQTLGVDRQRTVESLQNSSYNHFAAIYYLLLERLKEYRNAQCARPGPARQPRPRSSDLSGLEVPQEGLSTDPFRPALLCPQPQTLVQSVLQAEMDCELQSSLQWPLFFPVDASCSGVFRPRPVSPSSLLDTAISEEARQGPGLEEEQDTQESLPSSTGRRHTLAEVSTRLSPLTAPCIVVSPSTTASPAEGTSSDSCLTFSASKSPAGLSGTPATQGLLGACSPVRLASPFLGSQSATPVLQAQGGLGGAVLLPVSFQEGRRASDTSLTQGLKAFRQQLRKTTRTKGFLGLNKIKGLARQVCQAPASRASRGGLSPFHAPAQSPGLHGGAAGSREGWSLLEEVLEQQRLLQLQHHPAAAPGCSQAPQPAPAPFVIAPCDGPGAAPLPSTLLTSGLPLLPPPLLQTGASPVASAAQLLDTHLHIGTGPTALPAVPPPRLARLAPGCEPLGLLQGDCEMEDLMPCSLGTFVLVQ
The experiment is described as follows: Protein kinase assay, SIK1. As to conditions: read-out: SIK1 (SEQ ID NO: 10) kinase inhibition result. Type of experiment: biochemical. The protocol:
Briefly, specific kinase/substrate pairs along with required cofactors were prepared in reaction buffer; 20 mM Hepes (pH 7.5), 10 mMmgCl2, 1 mM EGTA, 0.02% Brij35, 0.02 mg/ml BSA, 0.1 mM Na3VO4, 2 mM DTT, 1% DMSO. Compounds were delivered into the reaction, followed ˜20 min later by addition of a mixture of ATP (Sigma) and 33P ATP (PerkinElmer) to a final concentration of 10 μM. […] IC50 values and curve fits were obtained using Prism (GraphPad Software). Kinome tree representations were prepared using Kinome Mapper (http://www.reactionbiology.com/apps/kinome/mapper/LaunchKinome.htm).
Regarding `COc1ncccc1-c1c[nH]c2nccc(-c3ccsc3)c12` [Example 36, 3-(2-methoxypyridin-3-yl)-4-(thiophen-3-yl)-1H-pyrrolo[2,3-b]pyridine], the IC50 was greater than 0.1 µM.

For `c1cnc(N2CCOCC2)c(-c2c[nH]c3nccc(-c4ccsc4)c23)c1` [Example 37, 4-(3-(4-(thiophen-3-yl)-1H-pyrrolo[2,3-b]pyridin-3-yl)pyridin-2-yl)morpholine], the IC50 is greater than 0.1 µM.

For the molecule `COc1ccc(-c2n[nH]c3nccc(-c4ccsc4)c23)c(OC)c1` [Example 87, 3-(2,4-dimethoxyphenyl)-4-(thiophen-3-yl)-1H-pyrazolo[3,4-b]pyridine], the IC50 is greater than 1 µM.

Turning to `COc1c(F)cccc1-c1c[nH]c2ncc(-c3ccsc3)cc12` [Example 125, 3-(3-fluoro-2-methoxyphenyl)-5-(thiophen-3-yl)-1H-pyrrolo[2,3-b]pyridine], the IC50 is greater than 1 µM.

Consider `COc1c(F)cc(F)cc1-c1c[nH]c2ncc(-c3cnn(C4CCN(S(C)(=O)=O)CC4)c3)cc12` [Example 214, 3-(3,5-difluoro-2-methoxyphenyl)-5-(1-(1-(methylsulfonyl)piperidin-4-yl)-1H-pyrazol-4-yl)-1H-pyrrolo[2,3-b]pyridine], for which the IC50 is greater than 1 µM.
